The record followed here is ChEMBL document CHEMBL3244052, “Conformational analogues of dopamine. Synthesis and pharmacological activity of (E)- and (Z)-2-(3,4-dihydroxyphenyl)cyclopropylamine hydrochlorides” (J Med Chem, 1979).

Assay [1] in a line: Agonist activity at alpha-adrenergic receptor in rabbit thoracic aorta assessed as […] contraction. The format is tissue-based, Oryctolagus cuniculus.
The test system of assay [2] is Canis familiaris. As to the kind of experiment: Dopaminergic activity in mongrel dog assessed as renal vasodilation up to 4.96 x 10^-6 M administered to renal artery. The format is functional, organism-based. Particulars: Canis lupus familiaris.
Assay [3] deals with Canis familiaris. As to the kind of experiment: Cardiac stimulant activity in iv dosed dog assessed as increase in heart rate. The format is functional, Canis lupus familiaris.
The subject of assay [4] is Canis familiaris. As to the kind of experiment: Cardiac stimulant activity in iv dosed dog assessed as dose producing 50% increase in contractile force. The format is functional, Canis lupus familiaris.

Activity calls are given as the source filed them. The rule behind the calls is not given here.

In the case of `CNC[C@H](O)c1cccc(O)c1.Cl` [PHENYLEPHRINE HYDROCHLORIDE], in assay [1], the EC50 was found to be 2.3 ×10⁻⁷ mol.

For `Cl.N[C@@H]1C[C@H]1c1ccc(O)c(O)c1` (racemic), in assay [2], the ED50 result was “inactive”. The EC50 in assay [1] is 94 ×10⁻⁷ mol. Further, the Activity was -2 bpm in assay [3] and 19.5 ×10⁻⁸ mol/kg in assay [4].

Consider `Cl.N[C@@H]1C[C@@H]1c1ccc(O)c(O)c1` (racemic), for which the ED50 result in assay [2] is “inactive”. Also, the EC50 in assay [1] was 457 ×10⁻⁷ mol. Also, the Activity in assay [3] was 32 bpm; in assay [4], 312.3 ×10⁻⁸ mol/kg.

As for `Cl.NCCc1ccc(O)c(O)c1` [DOPAMINE HYDROCHLORIDE], the EC50 in assay [1] stood at 102 ×10⁻⁷ mol. Moreover, the Activity in assay [3] turned out to be 5 bpm; in assay [4], 4.8 ×10⁻⁸ mol/kg.

`CC(C)NCC(O)c1ccc(O)c(O)c1.Cl` (centres undefined) [ISOPROTERENOL HYDROCHLORIDE]: the Activity in assay [3] is given as 16 bpm; in assay [4], 0.014 ×10⁻⁸ mol/kg.
